# Assay results reported in patent publication US11787825B2 (priority 2021, dated 2023).
# Marks after values point to notes of the source that are not given here.
# What was measured:
# [1] = Beagle, in vivo, po; for Dog F % (suspension): pH 2
# [2] = 1.0% DMSO, 24-hour incubation at ambient temperature, maximum theoretical compound concentration 100 μM; for pH 2 solubility: 0.1N HCL; for pH 7 solubility: 1×PBS buffer (pH 7.4)
# [3] = physchem; conditions: 25 °C, thermodynamic from solid
# [4] = fasted state simulated intestinal fluid (FaSSIF), fassif
# [5] = fed state simulated intestinal fluid (FeSSIF), fessif
SMILES,Dog F % (suspension) [1] [%],pH 2 solubility [2] [μM],pH 7 solubility [2] [μM],Dog F % (solution) [1],solubility ([3]; fassif) [µg/mL],solubility ([3]; fessif) [µg/mL],"solubility [3, 4] [µg/mL]","solubility [3, 5] [µg/mL]"
"CC(C)(CC(=O)N(c1nn(CC(F)(F)F)c2c(-c3ccc(C#CC(C)(C)S(C)(=O)=O)nc3[C@H](Cc3cc(F)cc(F)c3)NC(=O)Cn3nc(C(F)(F)F)c4c3C(F)(F)[C@@H]3C[C@H]43)ccc(Cl)c12)S(C)(=O)=O)CN(CC(=O)O)C(=O)OCOP(=O)(O)O [Compound 42, N-(4-(N-(4-chloro-7-(2-((S)-1-(2-((3bS,4aR)-5,5-difluoro (trifluoromethyl)-3b,4,4a,5-tetrahydro-1H-cyclopropa[3,4]cyclopenta[1,2-c]pyrazolyl)acetamido)-2-(3,5-difluorophenyl)ethyl)-6-(3-methyl-3-(methylsulfonyl)but-1-ynyl)pyridin-3-yl)-1-(2,2,2-trifluoroethyl)-1H-indazol-3-yl)methylsulfonamido)-2,2-dimethyl-4-oxobutyl)-N-(((phosphonooxy)methoxy)carbonyl)glycine]",9,1,100,–,–,–,–,–
"Cc1cc(CP(=O)(O)O)c(C(C)(C)CC(=O)N(c2nn(CC(F)(F)F)c3c(-c4ccc(C#CC(C)(C)S(C)(=O)=O)nc4[C@H](Cc4cc(F)cc(F)c4)NC(=O)Cn4nc(C(F)(F)F)c5c4C(F)(F)[C@@H]4C[C@H]54)ccc(Cl)c23)S(C)(=O)=O)c(OP(=O)(O)O)c1 [Compound 55, (2-(4-(N-(4-chloro-7-(2-((S)-1-(2-((3bS,4aR)-5,5-difluoro-3-(trifluoromethyl)-3b,4,4a,5-tetrahydro-1H-cyclopropa[3,4]cyclopenta[1,2-c]pyrazol-1-yl)acetamido)-2-(3,5-difluorophenyl)ethyl)-6-(3-methyl-3-(methylsulfonyl)but-1-yn-1-yl)pyridin-3-yl)-1-(2,2,2-trifluoroethyl)-1H-indazol-3-yl)methylsulfonamido)-2-methyl-4-oxobutan-2-yl)-5-methyl-3-(phosphonooxy)benzyl)phosphonic acid]",–,–,–,33 ^c %,> 10000,–,–,–
"Cc1cc(CC(=O)O)cc(OP(=O)(O)O)c1C(C)(C)CC(=O)N(c1nn(CC(F)(F)F)c2c(-c3ccc(C#CC(C)(C)S(C)(=O)=O)nc3[C@H](Cc3cc(F)cc(F)c3)NC(=O)Cn3nc(C(F)(F)F)c4c3C(F)(F)[C@@H]3C[C@H]43)ccc(Cl)c12)S(C)(=O)=O [Compound 47, 2-(4-(4-(N-(4-chloro-7-(2-((S)-1-(2-((3bS,4aR)-5,5-difluoro (trifluoromethyl)-3b,4,4a,5-tetrahydro-1H-cyclopropa[3,4]cyclopenta[1,2-c]pyrazolyl)acetamido)-2-(3,5-difluorophenyl)ethyl)-6-(3-methyl-3-(methylsulfonyl)but-1-ynyl)pyridin-3-yl)-1-(2,2,2-trifluoroethyl)-1H-indazol-3-yl)methylsulfonamido)-2-methyloxobutan-2-yl)-3-methyl-5-(phosphonooxy)phenyl)acetic acid]",7,–,–,–,1420,226,–,–
CC(C)(C#Cc1ccc(-c2ccc(Cl)c3c(N(C(=O)CCCN(C(=O)OCOP(=O)(O)O)[C@H](C(=O)O)c4ccccc4)S(C)(=O)=O)nn(CC(F)(F)F)c23)c([C@H](Cc2cc(F)cc(F)c2)NC(=O)Cn2nc(C(F)(F)F)c3c2C(F)(F)[C@@H]2C[C@H]32)n1)S(C)(=O)=O [Compound 40],5,1,100,–,–,–,–,–
"Cc1cc(CC(=O)N[C@@H](CC(=O)O)C(=O)O)c(C(C)(C)CC(=O)N(c2nn(CC(F)(F)F)c3c(-c4ccc(C#CC(C)(C)S(C)(=O)=O)nc4[C@H](Cc4cc(F)cc(F)c4)NC(=O)Cn4nc(C(F)(F)F)c5c4C(F)(F)[C@@H]4C[C@H]54)ccc(Cl)c23)S(C)(=O)=O)c(OP(=O)(O)O)c1 [Compound 59, (2-(2-(4-(N-(4-chloro-7-(2-((S)-1-(2-((3bS,4aR)-5,5-difluoro-3-(trifluoromethyl)-3b,4,4a,5-tetrahydro-1H-cyclopropa[3,4]cyclopenta[1,2-c]pyrazolyl)acetamido)-2-(3,5-difluorophenyl)ethyl)-6-(3-methyl-3-(methylsulfonyl)but-1-ynyl)pyridin-3-yl)-1-(2,2,2-trifluoroethyl)-1H-indazol-3-yl)methylsulfonamido)-2-methyloxobutan-2-yl)-5-methyl-3-(phosphonooxy)phenyl)acetyl)-L-aspartic acid]",–,–,–,27 ^c %,–,–,–,–
"Cc1cc(C)c(C(C)(C)CC(=O)N(c2nn(CC(F)(F)F)c3c(-c4ccc(C#CC(C)(C)S(C)(=O)=O)nc4[C@H](Cc4cc(F)cc(F)c4)NC(=O)Cn4nc(C(F)(F)F)c5c4C(F)(F)[C@@H]4C[C@H]54)ccc(Cl)c23)S(C)(=O)=O)c(OP(=O)(O)O)c1 [Compound 48, 2-(4-(N-(4-chloro-7-(2-((S)-1-(2-03bS,4aR)-5,5-difluoro (trifluoromethyl)-3b,4,4a,5-tetrahydro-1H-cyclopropa[3,4]cyclopenta[1,2-c]pyrazolyl)acetamido)-2-(3,5-difluorophenyl)ethyl)-6-(3-methyl-3-(methylsulfonyl)but-1-ynyl)pyridin-3-yl)-1-(2,2,2-trifluoroethyl)-1H-indazol-3-yl)methylsulfonamido)-2-methyl oxobutan-2-yl)-3,5-dimethylphenyl dihydrogen phosphate]",16,–,–,60^b %,777,948,–,–
"CC(C)(C#Cc1ccc(-c2ccc(Cl)c3c(N(C(=O)/C=C/C(=O)N(CCC(=O)O)[C@@H](CC(=O)O)C(=O)O)S(C)(=O)=O)nn(CC(F)(F)F)c23)c([C@H](Cc2cc(F)cc(F)c2)NC(=O)Cn2nc(C(F)(F)F)c3c2C(F)(F)[C@@H]2C[C@H]32)n1)S(C)(=O)=O [Compound 3, N-(2-carboxyethyl)-N—((E)-4-(N-(4-chloro-7-(2-((S)-1-(2-((3bS,4aR)-5,5-difluoro-3-(trifluoromethyl)-3b,4,4a,5-tetrahydro-111-cyclopropa[3,4]cyclopenta[1,2-c]pyrazol-1-yl)acetamido)-2-(3,5-difluorophenyl)ethyl)-6-(3-methyl-3-(methylsulfonyl)but-1-yn-1-yl)pyridin-3-yl)-1-(2,2,2-trifluoroethyl)-1H-indazol-3-yl)methylsulfonamido)-4-oxobut-2-enoyl)-L-aspartic acid]",10,–,–,–,–,–,–,–
"C[C@H](N)C(=O)N(c1nn(CC(F)(F)F)c2c(-c3ccc(C#CC(C)(C)S(C)(=O)=O)nc3[C@H](Cc3cc(F)cc(F)c3)NC(=O)Cn3nc(C(F)(F)F)c4c3C(F)(F)[C@@H]3C[C@H]43)ccc(Cl)c12)S(C)(=O)=O [Compound 18, (S)-2-amino-N-(4-chloro-7-(2-((S)-1-(2-((3bS,4aR)-5,5-difluoro-3-(trifluoromethyl)-3b,4,4a,5-tetrahydro-1H-cyclopropa[3,4]cyclopenta[1,2-c]pyrazol-1-yl)acetamido)-2-(3,5-difluorophenyl)ethyl)-6-(3-methyl-3-(methylsulfonyl)but-1-yn-1-yl)pyridin-3-yl)-1-(2,2,2-trifluoroethyl)-1H-indazol-3-yl)-N-(methylsulfonyl)propenamide]",–,60,1,–,–,–,0.5,0.4
"CC(C)(C#Cc1ccc(-c2ccc(Cl)c3c(N(C(=O)CNC(=O)OCOP(=O)(O)O)S(C)(=O)=O)nn(CC(F)(F)F)c23)c([C@H](Cc2cc(F)cc(F)c2)NC(=O)Cn2nc(C(F)(F)F)c3c2C(F)(F)[C@@H]2C[C@H]32)n1)S(C)(=O)=O [Compound 35, (phosphonooxy)methyl (2-(N-(4-chloro-7-(2-((S)-1-(2-((3bS,4aR)-5,5-difluoro-3-(trifluoromethyl)-3b,4,4a,5-tetrahydro-111-cyclopropa[3,4]cyclopenta[1,2-c]pyrazol-1-yl)acetamido)-2-(3,5-difluorophenyl)ethyl)-6-(3-methyl-3-(methylsulfonyl)but-1-yn-1-yl)pyridin-3-yl)-1-(2,2,2-trifluoroethyl)-1H-indazol-3-yl)methylsulfonamido)-2-oxoethyl)carbamate]",–,2,48,–,883,–,–,–
"CC(C)(C#Cc1ccc(-c2ccc(Cl)c3c(NS(C)(=O)=O)nn(CC(F)(F)F)c23)c([C@H](Cc2cc(F)cc(F)c2)NC(=O)Cn2nc(C(F)(F)F)c3c2C(F)(F)[C@@H]2C[C@H]32)n1)S(C)(=O)=O [Intermediate 5, N—((S)-1-(3-(4-chloro-3-(methylsulfonamido)-1-(2,2,2-trifluoroethyl)-1H-indazol-7-yl)-6-(3-methyl-3-(methylsulfonyl)but-1-yn-1-yl)pyridin-2-yl)-2-(3,5-difluorophenyl)ethyl)-2-((3bS,4aR)-5,5-difluoro-3-(trifluoromethyl)-3b,4,4a,5-tetrahydro-1H-cyclopropa[3,4]cyclopenta[1,2-c]pyrazol-1-yl)acetamide, reference compound]",–,0.11,0.32,–,–,–,4,4.2
